We go through two compounds from ChEMBL document CHEMBL1201862, “PubChem BioAssay data set” (2004).

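How tested: cells in 96-well plates exposed to compound for 48 hours at five concentrations. At the GI50, growth is halved.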 The source made the active and inactive calls. No stated cut-off is given here; in the data, active = GI50 up to about 1.1 µM and inactive = higher.

What all share (experiment): DTP human tumour cell line panel, 48 h
Assay [1] has as its system NCI-H23.
In assay [2] the test system is EKVX.
Assay [3] relates to NCI-H460.
Assay [4] has as its system SF-268.
Assay [5] has as its system IGROV-1.
Assay [6] deals with HCT-15.
Assay [7] relates to MDA-MB-435.
Assay [8] relates to HT-29.
Assay [9] has as its system Malme-3M.
For assay [10], the system named is OVCAR-4.
For assay [11], the system named is DU-145.
The test system of assay [12] is HCT-116.
The subject of assay [13] is NCI-H226.
Assay [14] has as its system OVCAR-8.
Assay [15] deals with A549.
For assay [16], the system named is MOLT-4.
The test system of assay [17] is UACC-257.
In assay [18] the test system is SK-OV-3.
Assay [19] relates to SK-MEL-28.
The test system of assay [20] is A498.

As for `c1ccc2c[n+](Cc3ccnc4ccccc34)ccc2c1`, the GI50 in assay [1] was > 100 µM (inactive); in [2] it was 71 µM (inactive); in assay [3], > 100 µM (inactive); in assay [4], > 100 µM (inactive); in assay [5], > 100 µM (inactive); in assay [6], greater than 100 µM. Further, the GI50 in assay [7] was > 100 µM (inactive); in assay [8], 51.8 µM (inactive); in [9], > 100 µM (inactive); in [10], > 100 µM (inactive); in assay [11] it was > 100 µM (inactive); in assay [12] it was > 100 µM (inactive). Besides, the GI50 in assay [13] was 41.8 µM (inactive); in [14] it was > 100 µM (inactive); in assay [15], > 100 µM (inactive); in assay [16] it was > 100 µM (inactive); in assay [17] it was > 100 µM (inactive); in [18], > 100 µM (inactive). Also, the GI50 in [19] and in assay [20] was > 100 µM (inactive) in each case.

In the case of `COc1ccc2c[n+](C)c3c4cc(OC)c(OC)cc4ccc3c2c1`, the GI50 was 3.12 µM (inactive) in assay [1]; 13.1 µM (inactive) in [2]; 3.91 µM (inactive) in [3]; 1.79 µM (inactive) in assay [4]; 4.89 µM (inactive) in [5]; greater than 41.9 µM in [6]. Also, the GI50 is 13.7 µM (inactive) in assay [7]; 4.1 µM (inactive) in assay [8]; 7.6 µM (inactive) in assay [9]; 8.09 µM (inactive) in assay [10]; 10.3 µM (inactive) in assay [11]; 4.37 µM (inactive) in [12]. Besides, the GI50 is 15.5 µM (inactive) in assay [13]; 2.14 µM (inactive) in [14]; 0.53 µM (active) in assay [15]; 3.85 µM (inactive) in assay [16]; 20.7 µM (inactive) in assay [17]; 2.99 µM (inactive) in assay [18]. Also, the GI50 in [19] was 18.9 µM (inactive); in assay [20], 45.8 µM (inactive).

In general, GI50 refers to the concentration giving 50% growth inhibition.
